Assays:
[1] = tested on: L5178Y murine lymphosarcoma cells; assay: Growth curve after gamma irradiation (final/initial cell density); type: cell-based
Description: The cell density in a mass culture of thymidine hypoxanthine methotrexate glycine/thymidine hypoxanthine glycine (THMG/THG) treated L5178Y cells was determined by Coulter counter and the cells were diluted with fresh warm F10p medium to bring the cell density for treatment to 600,000 cells/ml. Volumes of 10 ml of cell suspension were distributed into three T-25 flasks, and 0.05 ml volumes of solutions of 3-aminotyrosine, as well as a 0.05 ml of distilled water used as a control, to provide a ratio of 5 microliters per 1 ml of cell suspension (a 1:200 dilution) in each flask. In these experiments, the cells were treated with chemical under reduced lighting, but not as totally light sensitive.
The cells were then reincubated for 10 minutes at 37° C. The flasks were then placed simultaneously in the chamber of the GammaCell 40 irradiator at room temperature. The dose rate for the Cesium-137 exposure was 121.6 rads/min. It has been determined that the temperature of water in a T-25 flask originally at 37° C. placed in the irradiation chamber decreases during an 8 min period to approximately 30° C. Flasks were removed after exposure of 0, 250 rads (2.5 Gy), 500 rads (5.0 Gy), and 1000 rads (10 Gy).
After the irradiation, the cells were centrifuged and the supernatant discarded. The cells were resuspended in F10p medium, and again centrifuged. The washing process was repeated and the cells were resuspended in 10 ml of complete medium and counted.
A growth curve study was performed in duplicate by initiating flasks with 60 ml of cell suspension at 20,000 cells per ml. The cells were incubated at 37° C. with continued rotation in 250 ml plastic Erlenmeyer flasks. The cell density was determined by Coulter counter on a daily basis over a 72 hour period.
(§1) THMG/THG treated L5178Y cells were mass cultured and the cell density determined. Aliquots of the cell suspension with enough cells to give 300,000 cells per ml in 60 ml (1.8×10^7 cells) were distributed into three 50 ml centrifuge tubes, and after centrifugation, the original growth medium was discarded. The cells were resuspended in GIBCO custom formulation medium which had been prepared without phenol red. The cells were then washed one more time by centrifugation and resuspended again in 10 ml of the phenol red-free medium. These 10 ml suspensions of cells containing 1.8×10^7 cells were then transferred into three flasks already containing 50 ml of phenol red-free medium, distilled water, and either 100 nanomoles/ml or 2 micromoles/ml solutions of 3-aminotyrosine. The exposure system was treated as light sensitive (i.e., procedures were performed under gold light or reduced lighting). The cells were then incubated in the dark at 37° C. for 16 hours. Immediately prior to the end of the 16 hours, the cell density was determined by Coulter counter.
At 16 hours, the cells were irradiated at 0, 250, 500, and 1000 rads as described above in the GammaCell irradiator at room temperature. Immediately after irradiation was completed, the cells were centrifuged, washed twice with F10p, and resuspended in 10 ml of F10p. The cell density was again determined by Coulter counter. Growth curve determinations with initial seeding at 20,000 cells per ml were performed for 72 hours as described above. Cell survival assay by soft agar colony formation was performed as described above, using 0.22% BBL agar (BBL Microbiology Systems) in place of the DIFCO agar previously employed. After 11 days incubation at 37° C., colonies were counted and cell survival was determined.

[2] = tested on: L5178Y murine lymphosarcoma cells; assay: Survival after gamma irradiation by colony formation in soft agar; type: cell-based
Description: The remainder of the cell suspension after irradiation was used for determination of survival by colony formation in soft agar. For each dose, based on estimated survival probability, different numbers of cells were distributed in soft agar suspension (0.4% DIFCO Noble Agar) into 100 mm petri dishes. The dishes were briefly chilled to gel the agar, and then after brief warming in the laminar flow hood, placed in the 37° C. humidified CO2 incubator. The dishes were incubated for 11 days, and the number of colonies were determined using an Artek Automatic Colony Counter.
For the control and each 3-aminotyrosine and radiation dose, the percent cloning efficiency (% CE) was determined by dividing the number of colonies counted at 11 days by the number of cells seeded into the agar, times 100. The 0 dose % CE value was taken to be 100% survival for that chemical. The percent (%) survival reported was calculated by dividing the % CE after a given dose of radiation by the 0 dose % CE, times 100.
as §1, with “lighting).” for “lighting). The cells were then incubated in the dark at 37° C. for 16 hours. Immediately prior to the end of the 16 hours, the cell density was determined by Coulter counter.”
Immediately after irradiation was completed, the cells were centrifuged, washed twice with F10p, and resuspended in 10 ml of F10p. The cell density was again determined by Coulter counter. […] After 11 days incubation at 37° C., colonies were counted and cell survival was determined.

[3] = Zero hour incubation, 250 rads, 2 micromoles/ml
[4] = Zero hour incubation, 250 rads, 100 nanomoles/ml
[5] = Zero hour incubation, 500 rads, 2 micromoles/ml
[6] = Zero hour incubation, 500 rads, 100 nanomoles/ml
[7] = Zero hour incubation, 1000 rads, 2 micromoles/ml
[8] = Zero hour incubation, 1000 rads, 100 nanomoles/ml

For `Nc1cc(C[C@H](N)C(=O)O)ccc1O` [3-aminotyrosine, 3-amino-L-tyrosine], the “Final Cell Density/Initial Cell Density” value ([1]; Sixteen hour incubation, 0 rads, 2 micromoles/ml) was 71.4, the “Final Cell Density/Initial Cell Density” value ([1]; Sixteen hour incubation, 0 rads, 100 nanomoles/ml) was 83.3 and the “Final Cell Density/Initial Cell Density” value ([1]; Sixteen hour incubation, 250 rads, 2 micromoles/ml) was 34.6. For the same compound, the “Final Cell Density/Initial Cell Density” value ([1]; Sixteen hour incubation, 250 rads, 100 nanomoles/ml) was 50.5, the “Final Cell Density/Initial Cell Density” value ([1]; Sixteen hour incubation, 500 rads, 2 micromoles/ml) was 6.1 and the “Final Cell Density/Initial Cell Density” value ([1]; Sixteen hour incubation, 500 rads, 100 nanomoles/ml) was 5.3. For the same compound, the “Final Cell Density/Initial Cell Density” value ([1]; Sixteen hour incubation, 1000 rads, 2 micromoles/ml) was 1.1, the “Final Cell Density/Initial Cell Density” value ([1]; Sixteen hour incubation, 1000 rads, 100 nanomoles/ml) was 1.3 and the “Final Cell Density/Initial Cell Density” value ([1]; Zero hour incubation, 0 rads, 2 micromoles/ml) was 25.0. For the same compound, the “Final Cell Density/Initial Cell Density” value ([1]; Zero hour incubation, 0 rads, 100 nanomoles/ml) was 20.0, the “Final Cell Density/Initial Cell Density” value [1, 3] was 15.9 and the “Final Cell Density/Initial Cell Density” value [1, 4] was 14.1. The “Final Cell Density/Initial Cell Density” value [1, 5] was 7.7, the “Final Cell Density/Initial Cell Density” value [1, 6] was 7.7 and the “Final Cell Density/Initial Cell Density” value [1, 7] was 2.2. For the same compound, the “Final Cell Density/Initial Cell Density” value [1, 8] was 2.2, the “Ratio of Percent Survival, 3-Aminotyrosine/Control” value ([2]; Sixteen hour incubation, 250 rads, 1000 cells seeded, 2 micromoles/ml) was 0.84 and the “Ratio of Percent Survival, 3-Aminotyrosine/Control” value ([2]; Sixteen hour incubation, 250 rads, 1000 cells seeded, 100 nanomoles/ml) was 0.81. The “Ratio of Percent Survival, 3-Aminotyrosine/Control” value ([2]; Sixteen hour incubation, 250 rads, 2000 cells seeded, 2 micromoles/ml) was 0.94, the “Ratio of Percent Survival, 3-Aminotyrosine/Control” value ([2]; Sixteen hour incubation, 250 rads, 2000 cells seeded, 100 nanomoles/ml) was 0.85 and the “Ratio of Percent Survival, 3-Aminotyrosine/Control” value ([2]; Sixteen hour incubation, 500 rads, 1000 cells seeded, 2 micromoles/ml) was 1.20. For the same compound, the “Ratio of Percent Survival, 3-Aminotyrosine/Control” value ([2]; Sixteen hour incubation, 500 rads, 1000 cells seeded, 100 nanomoles/ml) was 0.63, the “Ratio of Percent Survival, 3-Aminotyrosine/Control” value ([2]; Sixteen hour incubation, 500 rads, 2000 cells seeded, 2 micromoles/ml) was 1.59 and the “Ratio of Percent Survival, 3-Aminotyrosine/Control” value ([2]; Sixteen hour incubation, 500 rads, 2000 cells seeded, 100 nanomoles/ml) was 0.98. The “Ratio of Percent Survival, 3-Aminotyrosine/Control” value ([2]; Sixteen hour incubation, 1000 rads, 2.5 × 10^5 cells seeded, 2 micromoles/ml) was 1.95, the “Ratio of Percent Survival, 3-Aminotyrosine/Control” value ([2]; Sixteen hour incubation, 1000 rads, 2.5 × 10^5 cells seeded, 100 nanomoles/ml) was 4.91 and the “Ratio of Percent Survival, 3-Aminotyrosine/Control” value ([2]; Sixteen hour incubation, 1000 rads, 5.0 × 10^5 cells seeded, 2 micromoles/ml) was 3.22. The “Ratio of Percent Survival, 3-Aminotyrosine/Control” value ([2]; Sixteen hour incubation, 1000 rads, 5.0 × 10^5 cells seeded, 100 nanomoles/ml) was 1.27, the “Ratio of Percent Survival, 3-Aminotyrosine/Control” value [2, 3] was 0.89 and the “Ratio of Percent Survival, 3-Aminotyrosine/Control” value [2, 4] was 0.85. The “Ratio of Percent Survival, 3-Aminotyrosine/Control” value [2, 5] was 0.63, the “Ratio of Percent Survival, 3-Aminotyrosine/Control” value [2, 6] was 0.70 and the “Ratio of Percent Survival, 3-Aminotyrosine/Control” value [2, 7] was 0.51. For the same compound, the “Ratio of Percent Survival, 3-Aminotyrosine/Control” value [2, 8] was 0.56 and the “effect on cell survival after irradiation, in words” value ([2]; cells preincubated for 16 hours) was “protective of cell survival”.
